In patent publication US20230286979A1, “SALT OF DIHYDROPYRIDO[2,3-D]PYRIMIDINONE DERIVATIVE, PREPARATION METHOD THEREFOR, AND USE THEREOF” (NANJING CHIA TAI TIANQING PHARMACEUTICAL CO., LTD., priority 2020, published 2023):

Tested on: AKT kinase
Assay: AKT kinase activity inhibition, summary statement of Test Example 1
Format: biochemical
Conditions: as demonstrated by Test Example 1
Method: g) The plate was sealed, the reaction solution was mixed until uniform and reacted at the room temperature for 1 h, and fluorescence signals were detected by using an ENVISION (Perkinelmer) instrument (320 nm stimulation, 665 nm, 615 nm emission). An inhibition rate in each well was calculated from all active wells and background signal wells, a mean value of repetitive wells was calculated, and the half inhibitory activity (IC50) of each compound to be tested was fitted by using the professional drawing analysis software PRISM 6.0.

CC(C)NC[C@@H](C(=O)N1CCN(c2ncnc3c2[C@H](C)CC(=O)N3)[C@H]2C[C@H]21)c1ccc(Cl)cc1 (single isomer, unassigned) [Isomer 2 of Example 1]
inhibiting effect on the AKT kinase activity: has an inhibiting effect
